Test system: ABCA4/RDH8 mouse model
Test: Light-induced retinal degeneration in ABCA4/RDH8 mouse model (ERG, retinal histology, SLO autofluorescence)
Type: in vivo
Conditions: 10 mg/kg twice daily IP, 10,000 lux light for 30 min on day 3
Procedure: The invention is illustrated by the following example. The compound of the invention was tested with the following experimental protocol: (1) Mice are dosed twice daily at 10 mg/kg or vehicle, IP. (2) On day 3, mice are exposed to 10,000 lux light for 30 min, 2 h after the first dosing and 6 h before the last dosing. (3) On day 11 ERG measurements are taken. (4) On day 12, mice are sacrificed for retinal histology. The ERG functional assay measures the functional integrity of retina. […] In the model, autofluorescence appears as the retina degenerates.

Cn1cc(-c2ccncc2)c(-c2ccc(OCc3ccc4ccccc4n3)cc2)n1 [MP-10, 2-[4-(1-methyl-4-pyridin-4-yl-1H-pyrazol-3-yl)-phenoxymethyl]-quinoline]
loss of ERG function (functional integrity of retina) (ERG on day 11, vs vehicle, FIG. 1): prevents loss of ERG function | autofluorescence in retina measured by SLO (FIG. 3): reduces the appearance of autofluorescence | photoreceptor cell loss (retinal histology grade; higher grade indicates more loss) (histology on day 12, FIG. 2): protects photoreceptor cell loss
